Measurements as given in PubChem BioAssay (NCI).
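Values below derive from 48-hour exposures of cells grown in 96-well plates, with endpoints linearly interpolated between the two concentrations bracketing the appropriate inhibition level. TGI is the concentration that stops growth completely.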

Key:
Experiment in all cases: NCI anticancer screen, dose series, 48 h
[1] = test system: SK-OV-3 ovarian
[2] = test system: NCI-H460 lung
[3] = test system: TK-10 renal
[4] = test system: DU-145 prostate
[5] = test system: HOP-92 NSCLC
[6] = test system: SNB-75 CNS
[7] = test system: HCT-116 colon
[8] = test system: SR leukemia
[9] = test system: KM12 colon
[10] = test system: COLO 205 colon
[11] = test system: NCI-H522 lung
[12] = test system: HT29 colon
[13] = test system: HCC-2998 colon
[14] = test system: A549 NSCLC
[15] = test system: RPMI-8226 leukemia
[16] = test system: HCT-15 colon
[17] = test system: ACHN renal
[18] = test system: NCI-H226 lung
[19] = test system: NCI-H23 lung
[20] = test system: SNB-19 CNS
[21] = test system: LOX IMVI melanoma
[22] = test system: SF-295 CNS
[23] = test system: CAKI-1 renal
[24] = test system: SK-MEL-28 melanoma
[25] = test system: KM20L2 colon
[26] = test system: K-562 leukemia
[27] = test system: IGROV1 ovarian
[28] = test system: XF 498 CNS
[29] = test system: HOP-18 NSCLC
[30] = test system: UO-31 renal
[31] = test system: OVCAR-3 ovarian
[32] = test system: U251 CNS
[33] = test system: SK-MEL-2 melanoma
[34] = test system: M14 melanoma
[35] = test system: SF-268 CNS
[36] = test system: LXFL 529 NSCLC
[37] = test system: OVCAR-5 ovarian
[38] = test system: MOLT-4 leukemia
[39] = test system: RXF 393 renal
[40] = test system: OVCAR-8 ovarian
[41] = test system: OVCAR-4 ovarian
[42] = test system: EKVX NSCLC
[43] = test system: SF-539 CNS
[44] = test system: SNB-78 CNS
[45] = test system: UACC-257 melanoma
[46] = test system: 786-0 renal
[47] = test system: CCRF-CEM leukemia
[48] = test system: SK-MEL-5 melanoma
[49] = test system: A498 renal
[50] = test system: SN12C renal
[51] = test system: M19-MEL melanoma
[52] = test system: HL-60(TB) leukemia
[53] = test system: DLD-1 colon
[54] = test system: SW-620 colon
[55] = test system: DMS 114 small cell lung
[56] = test system: HOP-62 NSCLC
[57] = test system: DMS 273 small cell lung
[58] = test system: RXF-631 renal
[59] = test system: MALME-3M melanoma
[60] = test system: UACC-62 melanoma

Structure (SMILES): C=C(C[N+](C)(C)C)N/N=C/c1oc(-c2ccc(OC)c(OC)c2)c(-c2ccc(OC)c(OC)c2)c1[N+](=O)[O-]
- TGI [1]: 64.4 µM
- TGI [2]: 40.2 µM
- TGI [3]: 50.6 µM
- TGI [4]: > 100 µM
- TGI [5]: 96.2 µM
- TGI [6]: 78.2 µM
- TGI [7]: 32.5 µM
- TGI [8]: 23.9 µM
- TGI [9]: 31.5 µM
- TGI [10]: 33.6 µM
- TGI [11]: 45.3 µM
- TGI [12]: 32.1 µM
- TGI [13]: 35.5 µM
- TGI [14]: > 100 µM
- TGI [15]: 41.4 µM
- TGI [16]: 36.8 µM
- TGI [17]: 31.5 µM
- TGI [18]: 66.3 µM
- TGI [19]: 44.7 µM
- TGI [20]: > 100 µM
- TGI [21]: 28.9 µM
- TGI [22]: 39.6 µM
- TGI [23]: > 100 µM
- TGI [24]: 33.8 µM
- TGI [25]: > 100 µM
- TGI [26]: 52.5 µM
- TGI [27]: 34.3 µM
- TGI [28]: 56.6 µM
- TGI [29]: 60.4 µM
- TGI [30]: 33.7 µM
- TGI [31]: 71.6 µM
- TGI [32]: 40.2 µM
- TGI [33]: 31.9 µM
- TGI [34]: 48.2 µM
- TGI [35]: 38.7 µM
- TGI [36]: 52.4 µM
- TGI [37]: 40.3 µM
- TGI [38]: 83.6 µM
- TGI [39]: 30.1 µM
- TGI [40]: 31.4 µM
- TGI [41]: 38 µM
- TGI [42]: > 100 µM
- TGI [43]: 31.6 µM
- TGI [44]: > 100 µM
- TGI [45]: 46.6 µM
- TGI [46]: 32.9 µM
- TGI [47]: 50.5 µM
- TGI [48]: 31.7 µM
- TGI [49]: 82.3 µM
- TGI [50]: 32.6 µM
- TGI [51]: 29.3 µM
- TGI [52]: 33.9 µM
- TGI [53]: 46.9 µM
- TGI [54]: 34.5 µM

Structure (SMILES): C(/C=C/N1CCCC1)=C\c1nc(N2CCCC2)c2ccccc2n1
- TGI [1]: 36.3 µM
- TGI [55]: 33.2 µM
- TGI [2]: 33.6 µM
- TGI [3]: > 100 µM
- TGI [6]: 31.6 µM
- TGI [7]: 33.8 µM
- TGI [8]: 33.9 µM
- TGI [9]: > 100 µM
- TGI [10]: 28.5 µM
- TGI [56]: 35.2 µM
- TGI [12]: 39.4 µM
- TGI [13]: 31.3 µM
- TGI [14]: > 100 µM
- TGI [15]: 42.3 µM
- TGI [16]: 32.5 µM
- TGI [17]: 30.8 µM
- TGI [18]: 39.7 µM
- TGI [57]: 34.2 µM
- TGI [19]: 32.9 µM
- TGI [20]: 36.3 µM
- TGI [58]: 41.3 µM
- TGI [21]: 32 µM
- TGI [22]: 35.4 µM
- TGI [23]: 35.3 µM
- TGI [24]: 38.7 µM
- TGI [25]: 51.7 µM
- TGI [26]: 35.6 µM
- TGI [27]: 39.6 µM
- TGI [29]: 30.3 µM
- TGI [30]: 29.2 µM
- TGI [31]: 29.7 µM
- TGI [33]: 39.1 µM
- TGI [34]: 33.5 µM
- TGI [35]: 41.7 µM
- TGI [36]: 28 µM
- TGI [37]: 28.9 µM
- TGI [38]: 52.3 µM
- TGI [59]: 33 µM
- TGI [40]: > 100 µM
- TGI [41]: 27.8 µM
- TGI [42]: 37.9 µM
- TGI [43]: 32.8 µM
- TGI [44]: 43.6 µM
- TGI [45]: > 100 µM
- TGI [46]: 30.4 µM
- TGI [47]: 50.1 µM
- TGI [48]: 33.3 µM
- TGI [49]: > 100 µM
- TGI [50]: 29 µM
- TGI [60]: 44.1 µM
- TGI [51]: 32.2 µM
- TGI [52]: 61.3 µM
- TGI [53]: 37.1 µM
- TGI [54]: 29.8 µM

Structure (SMILES): Nc1nc(Cl)cc(NCCCCCCNc2cc(Cl)nc(N)n2)n1
- TGI [1]: > 100 µM
- TGI [2]: > 100 µM
- TGI [3]: > 100 µM
- TGI [5]: > 100 µM
- TGI [6]: > 100 µM
- TGI [7]: > 100 µM
- TGI [8]: > 100 µM
- TGI [9]: > 100 µM
- TGI [10]: > 100 µM
- TGI [11]: > 100 µM
- TGI [56]: > 100 µM
- TGI [12]: > 100 µM
- TGI [13]: > 100 µM
- TGI [14]: > 100 µM
- TGI [15]: > 100 µM
- TGI [16]: > 100 µM
- TGI [17]: 22.5 µM
- TGI [18]: > 100 µM
- TGI [57]: > 100 µM
- TGI [19]: > 100 µM
- TGI [20]: > 100 µM
- TGI [58]: > 100 µM
- TGI [21]: > 100 µM
- TGI [22]: > 100 µM
- TGI [23]: > 100 µM
- TGI [25]: > 100 µM
- TGI [26]: > 100 µM
- TGI [27]: > 100 µM
- TGI [28]: 87 µM
- TGI [29]: > 100 µM
- TGI [30]: > 100 µM
- TGI [31]: > 100 µM
- TGI [32]: > 100 µM
- TGI [33]: > 100 µM
- TGI [34]: > 100 µM
- TGI [36]: > 100 µM
- TGI [37]: > 100 µM
- TGI [38]: > 100 µM
- TGI [39]: > 100 µM
- TGI [40]: > 100 µM
- TGI [41]: > 100 µM
- TGI [42]: > 100 µM
- TGI [43]: > 100 µM
- TGI [45]: > 100 µM
- TGI [46]: > 100 µM
- TGI [47]: > 100 µM
- TGI [48]: > 100 µM
- TGI [50]: > 100 µM
- TGI [60]: 97.8 µM
- TGI [51]: > 100 µM
- TGI [52]: > 100 µM
- TGI [53]: > 100 µM
- TGI [54]: > 100 µM
